Source: ChEMBL document CHEMBL1201862, “PubChem BioAssay data set” (2004)
Where “and” joins values, the source holds several entries; their conditions need not be identical. Equal values may be shown once.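 Assay format: 96-well plates, 48-hour exposure. Abbreviation: GI50, concentration required for 50% inhibition of growth.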 Calls of active or inactive are those of the source. Cut-off read from the data, not from the text of the source: active = GI50 up to about 1.1 µM and inactive = higher.

Legend:
Assay in all cases: inhibition of tumour cell growth, NCI panel, 48 h
786-0 = test system: 786-0
A549 = test system: A549
ACHN = test system: ACHN
CAKI-1 = test system: CAKI-1
DU-145 = test system: DU-145
HCT-15 = test system: HCT-15
HOP-62 = test system: HOP-62
HOP-92 = test system: HOP-92
Hs-578T = test system: Hs-578T
IGROV-1 = test system: IGROV-1
K562 = test system: K562
NCI-H226 = test system: NCI-H226
NCI-H460 = test system: NCI-H460
NCI/ADR-RES = test system: NCI/ADR-RES
RXF 393 = test system: RXF 393
SF-268 = test system: SF-268
SNB-19 = test system: SNB-19
SNB-75 = test system: SNB-75
U-251 = test system: U-251
BT-549 = test system: BT-549
CCRF-CEM = test system: CCRF-CEM
COLO 205 = test system: COLO 205
HL-60 = test system: HL-60
KM12 = test system: KM12
LOX IMVI = test system: LOX IMVI
M14 = test system: M14
MCF7 = test system: MCF7
MOLT-4 = test system: MOLT-4
Malme-3M = test system: Malme-3M
NCI-H23 = test system: NCI-H23
NCI-H522 = test system: NCI-H522
OVCAR-3 = test system: OVCAR-3
OVCAR-4 = test system: OVCAR-4
OVCAR-5 = test system: OVCAR-5
OVCAR-8 = test system: OVCAR-8
RPMI-8226 = test system: RPMI-8226
SF-295 = test system: SF-295
SK-MEL-28 = test system: SK-MEL-28
SK-MEL-5 = test system: SK-MEL-5
SK-OV-3 = test system: SK-OV-3
SR = test system: SR
SW-620 = test system: SW-620
T47D = test system: T47D
TK-10 = test system: TK-10
UACC-257 = test system: UACC-257
UO-31 = test system: UO-31
EKVX = test system: EKVX
HCC 2998 = test system: HCC 2998
HCT-116 = test system: HCT-116
HT-29 = test system: HT-29
MDA-MB-231 = test system: MDA-MB-231
MDA-MB-435 = test system: MDA-MB-435
PC-3 = test system: PC-3
SF-539 = test system: SF-539
SK-MEL-2 = test system: SK-MEL-2
SN12C = test system: SN12C

With `CC(=O)OCC1OC(n2c(S)c(C#N)c(-c3ccccc3)c(C#N)c2=O)C(OC(C)=O)C(OC(C)=O)C1OC(C)=O` (stereo not given) the GI50 (786-0) was 30 µM (inactive) and 33.9 µM (inactive), the GI50 (A549) was > 100 µM (inactive) and the GI50 (ACHN) was 54.1 µM (inactive) and 78.5 µM (inactive). The GI50 (CAKI-1) was 50.8 µM (inactive) and 61.9 µM (inactive), the GI50 (DU-145) was 58.3 µM (inactive) and the GI50 (HCT-15) was > 100 µM. The GI50 (HOP-62) was 21.7 µM (inactive) and 21.9 µM (inactive), the GI50 (HOP-92) was 31.3 µM (inactive) and 16.6 µM (inactive) and the GI50 (Hs-578T) was 38.8 µM (inactive). The GI50 (IGROV-1) was 53 µM (inactive), the GI50 (K562) was > 100 µM (inactive) and the GI50 (NCI-H226) was > 87.7 µM (inactive). For the same molecule, the GI50 (NCI-H460) was 50.2 µM (inactive) and > 88.7 µM (inactive), the GI50 (NCI/ADR-RES) was > 100 µM (inactive) and the GI50 (RXF 393) was 19.5 µM (inactive) and 18.5 µM (inactive). The GI50 (SF-268) was 21.8 µM (inactive) and 33 µM (inactive), the GI50 (SNB-19) was 32.2 µM (inactive) and the GI50 (SNB-75) was 26.2 µM (inactive) and 20.1 µM (inactive). The GI50 (U-251) was 23.8 µM (inactive) and 35.2 µM (inactive).

In the case of `S=C1NN=C2C(=C3CCCC4C5CCCCC5N2C34)N1` (stereo not given), the GI50 (A549) was > 100 µM (inactive), the GI50 (ACHN) was > 100 µM (inactive) and the GI50 (BT-549) was > 100 µM (inactive). For the same molecule, the GI50 (CAKI-1) was > 100 µM (inactive), the GI50 (CCRF-CEM) was 37.2 µM (inactive) and the GI50 (COLO 205) was 33 µM (inactive). For the same molecule, the GI50 (DU-145) was > 100 µM (inactive), the GI50 (HCT-15) was > 100 µM and the GI50 (HL-60) was > 100 µM (inactive). For the same molecule, the GI50 (HOP-62) was > 100 µM (inactive), the GI50 (HOP-92) was > 100 µM (inactive) and the GI50 (Hs-578T) was > 100 µM (inactive). The GI50 (IGROV-1) was > 100 µM (inactive), the GI50 (K562) was 38 µM (inactive) and the GI50 (KM12) was > 100 µM (inactive). The GI50 (LOX IMVI) was 56.4 µM (inactive), the GI50 (M14) was > 100 µM (inactive) and the GI50 (MCF7) was 44.5 µM (inactive). For the same molecule, the GI50 (MOLT-4) was 38 µM (inactive), the GI50 (Malme-3M) was > 100 µM (inactive) and the GI50 (NCI-H226) was 0.678 µM (active). For the same molecule, the GI50 (NCI-H23) was > 100 µM (inactive), the GI50 (NCI-H522) was 62.2 µM (inactive) and the GI50 (NCI/ADR-RES) was > 100 µM (inactive). For the same molecule, the GI50 (OVCAR-3) was > 100 µM (inactive), the GI50 (OVCAR-4) was > 100 µM (inactive) and the GI50 (OVCAR-5) was > 100 µM (inactive). For the same molecule, the GI50 (OVCAR-8) was > 100 µM (inactive), the GI50 (RPMI-8226) was 28.4 µM (inactive) and the GI50 (SF-268) was > 100 µM (inactive). The GI50 (SF-295) was > 100 µM (inactive), the GI50 (SK-MEL-28) was > 100 µM (inactive) and the GI50 (SK-MEL-5) was 82.6 µM (inactive). For the same molecule, the GI50 (SK-OV-3) was > 100 µM (inactive), the GI50 (SNB-19) was > 100 µM (inactive) and the GI50 (SR) was 83.4 µM (inactive). The GI50 (SW-620) was > 100 µM (inactive), the GI50 (T47D) was 24.8 µM (inactive) and the GI50 (TK-10) was > 100 µM (inactive). The GI50 (UACC-257) was > 100 µM (inactive) and the GI50 (UO-31) was > 100 µM (inactive).

For `Cc1c(CN)c(C)c(CN)c(C)c1CN`, the GI50 (786-0) was > 100 µM (inactive), the GI50 (A549) was > 100 µM (inactive) and the GI50 (ACHN) was > 100 µM (inactive). The GI50 (BT-549) was > 100 µM (inactive), the GI50 (CAKI-1) was > 100 µM (inactive) and the GI50 (CCRF-CEM) was > 100 µM (inactive). The GI50 (COLO 205) was > 100 µM (inactive), the GI50 (DU-145) was > 100 µM (inactive) and the GI50 (EKVX) was > 100 µM (inactive). For the same molecule, the GI50 (HCC 2998) was > 100 µM (inactive), the GI50 (HCT-116) was > 100 µM (inactive) and the GI50 (HCT-15) was > 100 µM. For the same molecule, the GI50 (HL-60) was > 100 µM (inactive), the GI50 (HOP-62) was 81.5 µM (inactive) and the GI50 (HOP-92) was > 100 µM (inactive). The GI50 (HT-29) was > 100 µM (inactive), the GI50 (IGROV-1) was > 100 µM (inactive) and the GI50 (K562) was > 100 µM (inactive). For the same molecule, the GI50 (KM12) was > 100 µM (inactive), the GI50 (LOX IMVI) was > 100 µM (inactive) and the GI50 (M14) was > 100 µM (inactive). For the same molecule, the GI50 (MCF7) was > 100 µM (inactive), the GI50 (MDA-MB-231) was > 100 µM (inactive) and the GI50 (MDA-MB-435) was > 100 µM (inactive). The GI50 (MOLT-4) was > 100 µM (inactive), the GI50 (Malme-3M) was > 100 µM (inactive) and the GI50 (NCI-H226) was > 100 µM (inactive). The GI50 (NCI-H23) was 27 µM (inactive), the GI50 (NCI-H460) was > 100 µM (inactive) and the GI50 (NCI-H522) was 86.7 µM (inactive). The GI50 (NCI/ADR-RES) was > 100 µM (inactive), the GI50 (OVCAR-4) was > 100 µM (inactive) and the GI50 (OVCAR-5) was > 100 µM (inactive). The GI50 (OVCAR-8) was > 100 µM (inactive), the GI50 (PC-3) was > 100 µM (inactive) and the GI50 (RPMI-8226) was > 100 µM (inactive). The GI50 (SF-268) was > 100 µM (inactive), the GI50 (SF-295) was > 100 µM (inactive) and the GI50 (SF-539) was > 100 µM (inactive). For the same molecule, the GI50 (SK-MEL-28) was > 100 µM (inactive), the GI50 (SK-MEL-2) was > 100 µM (inactive) and the GI50 (SK-MEL-5) was > 100 µM (inactive). For the same molecule, the GI50 (SN12C) was > 100 µM (inactive), the GI50 (SNB-19) was > 100 µM (inactive) and the GI50 (SNB-75) was > 100 µM (inactive). The GI50 (SR) was > 100 µM (inactive), the GI50 (SW-620) was > 100 µM (inactive) and the GI50 (TK-10) was > 100 µM (inactive). The GI50 (U-251) was > 100 µM (inactive) and the GI50 (UACC-257) was > 100 µM (inactive).
